Data: a melting point compilation (Tetko et al.; mined from patent text by program, amines drawn as free bases though some values may be those of a salt)

Row | Structure (SMILES) | melting point
1 | COc1ncccc1Nc1c(NC(NC(=O)c2cc(F)cc(F)c2)C(C)(C)C)c(=O)c1=O (stereo not given) | 221 to 223 °C
2 | CC(=O)SC(CC(=O)c1ccc(C)cc1)C(=O)O (stereo not given) | 81 to 85 °C
3 | CC(O)CNS(=O)(=O)c1ccc(Nc2nc(OCC3CCCCC3)c3nc[nH]c3n2)cc1 (stereo not given) | 236 to 238 °C
4 | Cc1cc(-c2noc(C3CC3)n2)cc(C)c1OCCCc1cc(O)no1 | 155 to 156 °C
5 | COC(=O)c1ccc(Cc2c(C)[nH]c(C)cc2=O)cc1 | 226 to 228 °C
6 | O=C(Cc1ccc(C(F)(F)F)cc1)c1ccccc1 | 143 to 144 °C
7 | Cc1ccc(-c2nnc(N3CCC4(CC3)OCCO4)nc2-c2ccc(C)cc2)cc1 | 169 to 170 °C
8 | C1=C(/C=C/c2cccs2)CCN(Cc2c[nH]c3ncccc23)C1 | 202 to 204 °C
9 | CCN1C(=O)C(=C2C=C(N3CCCC3)CC(C)(C)C2)SC1=S | 234 to 235 °C
10 | CC=CCSc1cc(C(=O)O)cc(S(N)(=O)=O)c1-c1ccccc1 | 89 to 91 °C
11 | Cc1cccc(NC(=O)NC2CN(CC(=O)N3CC4CCC(CC4)C3)c3c(C)cccc3C(c3ccccc3F)=N2)c1 (stereo not given) | 246 to 247 °C
12 | CCOCc1nc2c(N)nc3cc(-c4ccc(F)cc4)cnc3c2n1CC1(O)CCCC1 | 212 °C
13 | COCc1cc(-c2ncc3[nH]c4ccc(Cl)c(Cc5ccc(Cl)cc5)c4c3c2COC)no1 | 198 to 200 °C
14 | C=CCOc1ccc(-c2c(OC(C)C)cccc2C(=O)O)c(OC)c1 | 101 to 103 °C
15 | CCCn1nc(C(F)(F)CCC)nc1Cc1ccc(-c2ccccc2-c2nnn[nH]2)nc1 | 140 to 141 °C
16 | COC(=O)[C@@H]1Cc2ccccc2N1C(=O)[C@H](CC(=O)OCc1ccccc1)NC(=O)C(F)(F)F | 88 to 90 °C
17 | COC(=O)CC(=O)Nc1cccc(COc2ccc(C(C)=O)c(F)c2)c1 | 102 to 104 °C
18 | COC(=O)N(C)NC(=O)Oc1ccccc1 | 86 °C
19 | COc1ccc(-c2ccc(C#N)cc2)cc1C=O | 146 to 147 °C
20 | CCCCOc1cc(/C=C(\OC)C(=O)O)ccc1CCCc1ccc(OS(=O)(=O)CCCC)c(OC)c1 | 72.5 °C
21 | CN(C(=NC#N)Nc1cccnc1)C(NC(=O)c1ccc(Cl)cc1)C(C)(C)C (stereo not given) | 127 to 129 °C
22 | COc1cc2c(Nc3ccc(Cl)cc3F)ncnc2cc1OCCCSc1nccn1C | 199 to 201 °C
23 | O=C(CCl)OCN1C(=O)CN(CCN2CC(=O)N(COC(=O)CCl)C(=O)C2)CC1=O | 132 to 134 °C
24 | CCOC(=O)c1c(C)cc2c(c1C)c(=O)n(-c1ccccc1C(F)(F)F)c(=O)n2CCN1CCN(C(=O)C=Cc2ccccc2)CC1 | 119 to 120 °C

Row | Structure (SMILES) | melting point
25 | Cc1cc(NC(=O)C(=O)N(C)Cc2ccccc2)cc(C)c1S(=O)(=O)C[N+](=O)[O-] | 99 to 101 °C
26 | CS(=O)(=O)[C@H]1CN(Cc2ccccc2)C[C@@H]1S(C)(=O)=O | 56.5 °C
27 | CC(C)CC1(C(CC(C)Sc2cccs2)C(=O)NO)CCN(CCc2ccccc2)C1=O (stereo not given) | 104 to 105 °C
28 | CC(C)(C(=O)O)c1ccc(C(=O)CCCN2CCC(=C3c4ccccc4CCc4ccccc43)CC2)cc1 | 122 to 125 °C
29 | Cc1c(Cc2cccnc2)c2ccccc2n1CCc1nnn[nH]1 | 173 °C
30 | COC1=C(OC)C(=O)C2=C(CC(CCCCOc3ccc(C(=O)N4CCOCC4)cc3)C2)C1=O | 128 to 131 °C
31 | CN(C)CCNC(=O)N1CCC(Sc2ccc(Cl)cc2)C1 (stereo not given) | 97 to 98.5 °C
32 | CC(C)c1ccc(N(Cc2ccc(Cl)cc2)C(=O)C2CCCc3ccccc32)cc1 (stereo not given) | 122 to 123 °C
33 | CCOCCOc1c(C)cc(C#CC2(O)CN3CCC2CC3)cc1C (stereo not given) | 113 to 115 °C
34 | CCCC(c1ccccc1)c1ccc(-c2cnn3c(O)ncnc23)cc1 (stereo not given) | 280 to 285 °C
35 | CCOC(=O)CC(=O)c1cc(F)c(OP(=O)(OCC)OCC)nc1Nc1ccc(F)cc1F | 127 to 130 °C
36 | Cc1c(C)c2c(c(C)c1O)C(O)CC(C)(COc1ccc(CC3SC(=O)NC3=O)cc1)O2 (stereo not given) | 102 to 118 °C
37 | COc1ccc(CN(C)CCCOc2cccc(NC(=O)c3cccc4c(=O)c5cccc(OC)c5[nH]c34)c2)cc1OC | 124 °C
38 | Cc1cccc2nc(C)n(C3CCC(=O)NC3=O)c(=O)c12 (stereo not given) | 292 to 294 °C
39 | CNC(=O)c1cccc(NC(=O)CCc2ccc(O)cc2)c1 | 158 °C
40 | O[C@H](COc1cccc2[nH]ccc12)CN1CCC(c2c[nH]c3cc(C(F)(F)F)ccc23)CC1 | 100 to 105 °C
41 | COc1nc(C(F)(F)F)cc(=O)n1-c1cc(C(=O)N(C)OC)c(Cl)cc1F | 119 °C
42 | CO[C@H]([C@@H](C)C(=S)NCCc1ccccc1)[C@@H]1CCCN1C(=O)OC(C)(C)C | 107 to 109 °C
43 | CC1(C)CCC(C)(C)c2cc(OCc3ccc(C#N)cc3)ccc21 | 149 to 150 °C
44 | O=C(CN1CCN(c2ccc([N+](=O)[O-])cc2)CC1)Nc1ccc(Nc2ccccc2)cc1 | 212 to 213 °C
45 | CCCCOC1c2ccccc2C(=O)N(CC(C)C)C1(/C=C/C(N)=O)CNC(=O)OC(C)(C)C (stereo not given) | 149 to 150 °C
46 | CCCc1nc(C)cn1-c1nc(OC)ccc1[N+](=O)[O-] | 96 to 103 °C
47 | CC(C)CCC(O)C(CC1CCCCC1)NC(=O)C(Cc1c[nH]cn1)N(C)C(=O)C(Cc1ccccc1)OC(=O)N(C)CCN(C)C(=O)C(C)C (stereo not given) | 68 to 72 °C
48 | NCCCCCCc1ccc(Cl)cc1 | 71 °C

Row | Structure (SMILES) | melting point
49 | C[C@@H](n1cnc2c(cnn2-c2ccc(F)cc2)c1=O)[C@](O)(Cn1cncn1)c1ccc(F)cc1F | 217 to 218 °C
50 | CN1C(=NCCCCn2ccnc2)c2cccc3cccc1c23 | 126 to 127 °C
51 | COc1ccc(-c2nc(CNC(C)=O)sc2-c2ccc(OC)cc2)cc1 | 138 to 141 °C
52 | Fc1ccc(N2CCN(Cc3c[nH]c4ncccc34)CC2)cc1 | 214 to 216 °C
53 | Fc1cccc(F)c1-c1nc2c(s1)NCCCC2 | 143 to 144 °C
54 | COC1=C(c2ccc(C)cc2C)C(=O)CCC1 | 122 to 123 °C
55 | CCCSc1ncc(CC(Cc2ccccc2)C(=O)O)n1Cc1ccccc1Cl (stereo not given) | 123 to 127 °C
56 | CCC(=O)Oc1cc(-c2nc3cc(C(=O)O)ccc3oc2=O)cc([N+](=O)[O-])c1OC(=O)CC | 192 to 194 °C
57 | O=C(O)C1Cc2c([nH]c3ccccc23)C(CO)N1 (stereo not given) | 231 to 233 °C
58 | CC(C)(C)c1ccc(-c2nc3c4[nH]cnc4nc(CP(=O)(O)O)n3n2)cc1 | 270 °C
59 | CCOC(=O)c1ccc(-c2c(Cl)c(CN3C(=O)CCC3=O)nc3sc4c(c23)CCN(C(=O)OCc2ccccc2)C4)cc1 | 198 to 199 °C
60 | CCOC(=O)c1c(SC)sc2c(F)c(F)c(F)cc2c1=O | 113 to 115 °C
61 | CCOC(=O)c1cnc2c3cc(N)ccc3c(C)cn2c1=O | 245 to 248 °C
62 | CCN(C(=O)c1ccccc1C(=O)c1ccc(Cl)cc1)C(C)(C)CNS(=O)(=O)c1ccc(C)cc1 | 175 to 176 °C
63 | Oc1ccc2c(c1)CCCC(c1ccccc1)=C2c1ccc(OCCCCCSCc2ccccn2)cc1 | 159 °C
64 | O=C(NCc1ccc(Cl)cc1)c1cn(CCO)c2sc(CCCO)cc2c1=O | 174 to 178 °C
65 | Cc1cc(-n2ccnc2)c2cccc(OCc3c(Cl)ccc(S(=O)(=O)N4CCC[C@H]4C(=O)NCCN4CCOCC4)c3Cl)c2n1 | 100 °C
66 | COc1ccc(-c2cnc3cc4cnn(CC#N)c4cc3n2)cc1F | 248 to 252 °C
67 | c1ccc(-c2nc(N3CCN(c4ccccn4)CC3)c3ccccc3n2)cc1 | 164 to 166 °C
68 | CCCCCCc1cnn(-c2ccccn2)c1O | 37 to 38 °C
69 | CCOC(=O)c1cc2c(-c3ccc(C(F)(F)F)n(C)c3=O)c(F)cc(Cl)c2o1 | 118 to 120 °C
70 | COc1ccc(-c2cc(=Nc3c(C)cc(C)cc3C)n(C)c(Cl)n2)cc1OC | 159 to 162 °C
71 | CO/C=C(/C(=O)OC)c1ccccc1CCl | 85 to 88 °C
72 | Cn1cccc1C(=O)c1sc(Nc2ccc3[nH]cnc3c2)nc1N | 284 to 285 °C

Row | Structure (SMILES) | melting point
73 | CC(C)(C)Sc1c(CC(C)(C)C(=O)O)n(Cc2ccc(Cl)cc2)c2cc(OCc3ccc4ccccc4n3)ccc12 | 165 to 167 °C
74 | CCCn1c(=O)c2c(NC)n[nH]c2n(Cc2cccc(Cl)c2)c1=O | 263 to 265 °C
75 | O=c1oc2ccccc2c2c1CNCC2 | 125 to 128 °C
76 | CN1CCc2nc3ccc(Cl)cc3c(Cl)c2C1 | 88 to 89 °C
77 | C=CCOc1ccc(CCC(=O)O)cc1 | 88 to 89 °C
78 | Cc1nnc(COc2cccc(NC(=O)N(C)C)c2)o1 | 102 to 105 °C
79 | CN1C(=S)N(c2cc(C(F)(F)F)cc(C(F)(F)F)c2)C(O)C1O (stereo not given) | 133 to 135 °C
80 | CC1(C)CC(O)CC(C)(C)N1Cc1ccccc1 | 151 to 152 °C
81 | CSc1ccc(-c2cnn(C(C)(C)C)c(=O)c2OCCC(C)C)cc1 | 153 to 155 °C
82 | N#Cc1cc(Cl)c(F)cc1F | 48 to 50 °C
83 | CCN(CC)Cc1cc(C(N)=O)ccc1N | 129 to 131 °C
84 | Cc1cc(-c2nnc3c4ccccc4c(OCc4ccccn4)nn23)no1 | 234 to 236 °C
85 | COC(=O)c1cc(NC(=O)COc2ccccc2)c2cc(Cc3ccc(F)cc3)cnc2c1O | 172 to 173 °C
86 | CC1c2cc(O)ccc2-c2c1cc1cc(O)ccc1c2Cl (stereo not given) | 215 to 220 °C
87 | Cc1c(C(=O)Nc2ccc(N3CCN(CCO)CC3)c(C#N)c2)cnn1C | 228 to 230 °C
88 | CSc1nccc(CC(=O)c2cccc(Br)c2)n1 | 98 to 101 °C
89 | Cc1c(-c2ccc3c(c2)OCO3)[nH]c2ccc(OCc3ccccc3)cc12 | 142 to 145 °C
90 | O=C1c2ccccc2C(=O)N1Cc1ccc(/C=C/C(c2cc(Cl)cc(Cl)c2)C(F)(F)F)cc1Cl (stereo not given) | 141 to 143 °C
91 | COc1ccc(CCNC(=O)Nc2ccccc2CCc2cc(C(C)(C)C)c(O)c(C(C)(C)C)c2)cc1 | 148 to 149 °C
92 | CC(CSC(=O)c1ccccc1)C(=O)N1C(C(=O)O)CC2CCCCC21 (stereo not given) | 184 to 186 °C
93 | CCOC(=O)Cc1ccc(NC(=O)C(CCc2ccccc2)NS(=O)(=O)c2ccc(Cl)cc2)cc1 (racemic) | 114 to 115 °C
94 | CCOC(=O)c1c[nH]c(Cc2ccc(OC)cc2)n1 | 119 to 121 °C
95 | CC12C=CC(=O)C=C1CCC1C2C(=O)CC2(C)C(SCc3ccc(Cl)c(Cl)c3)CCC12 (stereo not given) | 131 to 133 °C
